Source: patent publication US12441723B2, “Pyrazole compounds, formulations thereof, and a method for using the compounds and/or formulations” (Rigel Pharmaceuticals, Inc., priority 2019, dated 2025)
Where a name gives a salt, the structure may show the parent alone. Values belong to the compound of their own block, whether it stands above or below them.

Legend:
[1] = Pharmacokinetics in male cynomolgus monkeys (co-crystal capsules, spray-dried dispersion); type: in vivo
Method: Two groups of male cynomolgus monkeys (n=3/group) were administered test articles in a 3-way crossover design as indicated in Table 2. The washout period between doses was 3-4 days. Test article capsules were prepared such that each capsule contained an equivalent of 25 mg of free base compound I-1. The organic stock solution of compound I-1 was prepared at a concentration of 5 mg/ml using TPGS/PEG400/PG, and was diluted with apple juice within 1 hour of dosing (PO) at 1 part stock solution to 3 parts apple juice.
FIGS. 11-14 provide graphs of the plasma concentrations obtained from administering the co-crystal formulations of compound I-1 to monkeys. And Table 3 provides pharmacokinetic (PK) data for the co-crystal formulations, including the average area under the curve (AUC) and percent bioavailability.
FIG. 19 provides PK data for one embodiment of the disclosed spray-dried formulation, and the organic/juice formulation.

[2] = Physical and chemical stability of salts of I-18, 1 week (XRPD, HPLC purity); type: physicochemical; settings: for Area (%) of HPLC peak RRT 1.00: main peak; for Area (%) of HPLC peak RRT 1.17: peak = parent compound formed by hydrolysis; for Form change: XRPD; for Initial purity (area %): HPLC, before storage
Method: The physical and chemical stability of the K salt, Arginine salt, Choline salt and Tris salt were evaluated under conditions of 25° C./60% RH and 40° C./75% RH for 1 week. Each sample was added into 3 mL glass vials, sealed by parafilm with several holes, and kept under tested condition. After one week, samples was taken for XRPD and HPLC purity test.

[3] = 25° C./60% RH, 1 week, listed as tris salt
[4] = 40° C./75% RH, 1 week, listed as tris salt
[5] = 25° C./60% RH, 1 week, listed as potassium salt
[6] = 40° C./75% RH, 1 week, listed as potassium salt
[7] = Initial, listed as potassium salt
[8] = 25° C./60% RH, 1 week, listed as choline salt
[9] = 40° C./75% RH, 1 week, listed as choline salt
[10] = Initial, listed as choline salt

% F (percent bioavailability) ([1]; n=3, capsule with equivalent of 25 mg free base compound I-1): 24.7%
Compound: CCO[C@H]1CC[C@H](n2cc(NC(=O)c3csc(-c4cn[nH]c4)n3)c(-c3nc(F)ccc3F)n2)CC1.O=C(O)C(O)C(O)C(=O)O [I-11, N-(3-(3,6-difluoropyridin-2-yl)-1-((1r,4r)-4-ethoxycyclohexyl)-1H-pyrazol-4-yl)-2-(1H-pyrazol-4-yl)thiazole-4-carboxamide hemi-tartrate salt]

Compound: CCO[C@H]1CC[C@H](n2cc(NC(=O)c3csc(-c4cnn(C(C)OP(=O)(O)O)c4)n3)c(-c3nc(F)ccc3F)n2)CC1 (stereo partly drawn) [I-49, 1-(4-(4-((3-(3,6-difluoropyridin-2-yl)-1-((1r,4r)-4-ethoxycyclohexyl)-1H-pyrazol-4-yl)carbamoyl)thiazol-2-yl)-1H-pyrazol-1-yl)ethyl dihydrogen phosphate tris salt]
Area (%) of HPLC peak RRT 1.13 ([2]; 25° C./60% RH, 1 week): 0.06%
Area (%) of HPLC peak RRT 0.77 [2, 3]: <0.03%
Area (%) of HPLC peak RRT 1.45 [2, 3]: 0.35%
Area (%) of HPLC peak RRT 1.71 [2, 3]: 0.80%
Area (%) of HPLC peak RRT 1.73 [2, 3]: 0.55%
HPLC purity change [2, 3]: no HPLC purity decrease
Area (%) of HPLC peak RRT 1.00 [2, 3]: 96.61%
Area (%) of HPLC peak RRT 1.17 [2, 3]: 1.63%
Form change ([2]; 25° C./60% RH/1 week, listed as Tris salt): no form change and No
Area (%) of HPLC peak RRT 0.77 [2, 4]: 0.03%
Area (%) of HPLC peak RRT 1.45 [2, 4]: 0.47%
Area (%) of HPLC peak RRT 1.71 [2, 4]: 0.88%
Area (%) of HPLC peak RRT 1.73 [2, 4]: 0.84%
HPLC purity change [2, 4]: a purity decrease was observed
Area (%) of HPLC peak RRT 1.00 [2, 4]: 95.03%
Area (%) of HPLC peak RRT 1.17 [2, 4]: 2.69%
Form change ([2]; 40° C./75% RH/1 week, listed as Tris salt): no form change and No
Initial purity (area %) ([2]; listed as Tris salt): 96.06 area %
Area (%) of HPLC peak RRT 0.77 ([2]; Initial, listed as tris salt): <0.03%
Area (%) of HPLC peak RRT 1.13 ([2]; Initial, listed as tris salt): 0.07%
Area (%) of HPLC peak RRT 1.45 ([2]; Initial, listed as tris salt): 0.37%
Area (%) of HPLC peak RRT 1.71 ([2]; Initial, listed as tris salt): 0.86%
Area (%) of HPLC peak RRT 1.73 ([2]; Initial, listed as tris salt): 0.76%
Area (%) of HPLC peak RRT 1.00 ([2]; Initial, listed as tris salt): 96.06%
Area (%) of HPLC peak RRT 1.17 ([2]; Initial, listed as tris salt): 1.87%

bioavailability ([1]; cynomolgus monkey, plasma, po, n=3, capsule with equivalent of 25 mg free base compound I-1, read-out: % F (percent bioavailability)): 7.9%
AUC(0-t) ([1]; cynomolgus monkey, po, n=3, capsule with equivalent of 25 mg free base compound I-1, plasma, normalized to 5 mg/kg of compound I-1, read-out: Average AUC0-24 h ± SD (5 mg/kg basis)): 921 ± 446 ng·h/mL
Compound: CCO[C@H]1CC[C@H](n2cc(NC(=O)c3csc(-c4cn[nH]c4)n3)c(-c3nc(F)ccc3F)n2)CC1 [I-104, N-(3-(3,6-difluoropyridin-2-yl)-1-((1r,4r)-4-ethoxycyclohexyl)-1H-pyrazol-4-yl)-2-(1H-pyrazol-4-yl)thiazole-4-carboxamide phosphate]

% F (percent bioavailability) ([1]; n=3, capsule with equivalent of 25 mg free base compound I-1, listed as Gentisate cocystal): 9.8%
Compound: CCO[C@H]1CC[C@H](n2cc(NC(=O)c3csc(-c4cn[nH]c4)n3)c(-c3nc(F)ccc3F)n2)CC1 [I-105, N-(3-(3,6-difluoropyridin-2-yl)-1-((1r,4r)-4-ethoxycyclohexyl)-1H-pyrazol-4-yl)-2-(1H-pyrazol-4-yl)thiazole-4-carboxamide gentisate]

% F (percent bioavailability) ([1]; n=3, capsule with equivalent of 25 mg free base compound I-1, listed as Succinate co-crystal): 12.7%
Compound: CCO[C@H]1CC[C@H](n2cc(NC(=O)c3csc(-c4cn[nH]c4)n3)c(-c3nc(F)ccc3F)n2)CC1 [I-106, N-(3-(3,6-difluoropyridin-2-yl)-1-((1r,4r)-4-ethoxycyclohexyl)-1H-pyrazol-4-yl)-2-(1H-pyrazol-4-yl)thiazole-4-carboxamide succinate]

Compound: CCO[C@H]1CC[C@H](n2cc(NC(=O)c3csc(-c4cnn(C(C)OP(=O)(O)O)c4)n3)c(-c3nc(F)ccc3F)n2)CC1 (stereo partly drawn) [I-108, potassium 1-(4-(4-((3-(3,6-difluoropyridin-2-yl)-1-((1r,4r)-4-ethoxycyclohexyl)-1H-pyrazol-4-yl)carbamoyl)thiazol-2-yl)-1H-pyrazol-1-yl)ethyl hydrogen phosphate]
Area (%) of HPLC peak RRT 1.14 ([2]; 25° C./60% RH, 1 week): <0.04%
Area (%) of HPLC peak RRT 1.40 ([2]; 25° C./60% RH, 1 week): 0.25%
Area (%) of HPLC peak RRT 1.44 ([2]; 25° C./60% RH, 1 week): 0.30%
Area (%) of HPLC peak RRT 1.70 ([2]; 25° C./60% RH, 1 week): 0.27%
Area (%) of HPLC peak RRT 1.72 ([2]; 25° C./60% RH, 1 week): 0.78%
Area (%) of HPLC peak RRT 1.81 ([2]; 25° C./60% RH, 1 week): <0.04%
HPLC purity change ([2]; 25° C./60% RH, 1 week, listed as K salt): slight purity decrease
Area (%) of HPLC peak RRT 1.00 [2, 5]: 96.26%
Area (%) of HPLC peak RRT 1.17 [2, 5]: 2.14%
Form change ([2]; 25° C./60% RH/1 week, listed as K salt): no form change and No
Area (%) of HPLC peak RRT 1.14 ([2]; 40° C./75% RH, 1 week): 0.05%
Area (%) of HPLC peak RRT 1.40 ([2]; 40° C./75% RH, 1 week): 0.39%
Area (%) of HPLC peak RRT 1.44 ([2]; 40° C./75% RH, 1 week): 0.24%
Area (%) of HPLC peak RRT 1.70 ([2]; 40° C./75% RH, 1 week): 0.24%
Area (%) of HPLC peak RRT 1.72 ([2]; 40° C./75% RH, 1 week): 0.83%
Area (%) of HPLC peak RRT 1.81 ([2]; 40° C./75% RH, 1 week): 0.04%
HPLC purity change ([2]; 40° C./75% RH, 1 week, listed as K salt): slight purity decrease
Area (%) of HPLC peak RRT 1.00 [2, 6]: 96.40%
Area (%) of HPLC peak RRT 1.17 [2, 6]: 1.80%
Form change ([2]; 40° C./75% RH/1 week, listed as K salt): a form change was observed and Yes
Initial purity (area %) ([2]; listed as K salt): 97.27 area %
Area (%) of HPLC peak RRT 1.14 ([2]; Initial): <0.04%
Area (%) of HPLC peak RRT 1.40 ([2]; Initial): 0.23%
Area (%) of HPLC peak RRT 1.44 ([2]; Initial): 0.21%
Area (%) of HPLC peak RRT 1.70 ([2]; Initial): 0.18%
Area (%) of HPLC peak RRT 1.72 ([2]; Initial): 0.77%
Area (%) of HPLC peak RRT 1.81 ([2]; Initial): <0.04%
Area (%) of HPLC peak RRT 1.00 [2, 7]: 97.27%
Area (%) of HPLC peak RRT 1.17 [2, 7]: 1.33%

Compound: CCO[C@H]1CC[C@H](n2cc(NC(=O)c3csc(-c4cnn(C(C)OP(=O)(O)O)c4)n3)c(-c3nc(F)ccc3F)n2)CC1 (stereo partly drawn) [I-111, 1-(4-(4-((3-(3,6-difluoropyridin-2-yl)-1-((1r,4r)-4-ethoxycyclohexyl)-1H-pyrazol-4-yl)carbamoyl)thiazol-2-yl)-1H-pyrazol-1-yl)ethyl dihydrogen phosphate choline salt]
Area (%) of HPLC peak RRT 0.77 [2, 8]: 0.04%
Area (%) of HPLC peak RRT 1.35 [2, 8]: 0.10%
Area (%) of HPLC peak RRT 1.45 [2, 8]: 0.07%
Area (%) of HPLC peak RRT 1.71 [2, 8]: 0.05%
Area (%) of HPLC peak RRT 1.73 [2, 8]: 0.46%
HPLC purity change [2, 8]: no HPLC purity decrease
Area (%) of HPLC peak RRT 1.00 [2, 8]: 98.66%
Area (%) of HPLC peak RRT 1.17 [2, 8]: 0.58%
Purity/Initial purity (%) ([2]; 25° C./60% RH/1 week): 100.0%
Form change ([2]; 25° C./60% RH/1 week, listed as Choline salt): no form change and No
Area (%) of HPLC peak RRT 0.77 [2, 9]: 0.04%
Area (%) of HPLC peak RRT 1.35 [2, 9]: 0.14%
Area (%) of HPLC peak RRT 1.45 [2, 9]: 0.11%
Area (%) of HPLC peak RRT 1.71 [2, 9]: 0.08%
Area (%) of HPLC peak RRT 1.73 [2, 9]: 0.46%
HPLC purity change [2, 9]: a purity decrease was observed
Area (%) of HPLC peak RRT 1.00 [2, 9]: 97.81%
Area (%) of HPLC peak RRT 1.17 [2, 9]: 1.31%
Form change ([2]; 40° C./75% RH/1 week, listed as Choline salt): no form change and No
Initial purity (area %) ([2]; listed as Choline salt): 98.70 area %
Area (%) of HPLC peak RRT 1.35 ([2]; Initial): <0.03%
Area (%) of HPLC peak RRT 0.77 [2, 10]: 0.03%
Area (%) of HPLC peak RRT 1.13 [2, 10]: 0.06%
Area (%) of HPLC peak RRT 1.45 [2, 10]: 0.06%
Area (%) of HPLC peak RRT 1.71 [2, 10]: 0.06%
Area (%) of HPLC peak RRT 1.73 [2, 10]: 0.33%
Area (%) of HPLC peak RRT 1.00 [2, 10]: 98.70%
Area (%) of HPLC peak RRT 1.17 [2, 10]: 0.75%
